Data as given in PMC3265452 (PLoS Neglected Tropical Diseases, 2012).
Counter-ions that a name gives are not always drawn.

molecular target: AaDOP2 (Aedes aegypti, UniProt H6D5H2); assay: AaDOP2 antagonist screen of the LOPAC1280 library (HEK-CRELuc-Aadop2 cells, luminescence); format: cell-based; conditions: not given
Sequence (H6D5H2 1-476): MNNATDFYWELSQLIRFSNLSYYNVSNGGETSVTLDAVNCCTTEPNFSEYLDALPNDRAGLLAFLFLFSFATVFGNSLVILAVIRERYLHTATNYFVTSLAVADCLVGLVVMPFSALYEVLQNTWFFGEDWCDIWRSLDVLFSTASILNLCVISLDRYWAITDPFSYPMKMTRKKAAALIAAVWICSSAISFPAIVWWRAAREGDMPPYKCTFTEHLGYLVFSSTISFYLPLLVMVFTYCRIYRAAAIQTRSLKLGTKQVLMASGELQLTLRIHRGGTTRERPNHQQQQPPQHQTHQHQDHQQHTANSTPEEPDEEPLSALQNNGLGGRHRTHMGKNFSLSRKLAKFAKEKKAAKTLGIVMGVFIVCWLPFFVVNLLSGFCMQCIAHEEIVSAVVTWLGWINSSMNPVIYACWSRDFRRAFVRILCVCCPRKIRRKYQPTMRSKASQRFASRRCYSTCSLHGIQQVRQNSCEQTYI

Row | SMILES | Compound effect (percent receptor signaling in presence of test compound, relative lux units relative to the SCH23390 control)
1 | Cl.Cl.c1ccc(CCCN2CCN(CCOC(c3ccccc3)c3ccccc3)CC2)cc1 [Compound 560, GBR-12935 dihydrochloride] | 61
2 | O=C(O)C1=CCNCC1 [Compound 561, Isoguvacine hydrochloride] | 71
3 | O=C(O)C1=CCCNC1 [Compound 562, Guvacine hydrochloride] | 94
4 | Br.NCc1cc(O)no1 [Compound 564, Muscimol hydrobromide] | 130
5 | N=C(N)N/N=C/c1c(Cl)cccc1Cl [Compound 565, Guanabenz acetate] | 156
6 | Cc1cnc(C(=O)NCCc2ccc(S(=O)(=O)NC(=O)NC3CCCCC3)cc2)cn1 [Compound 567, Glipizide] | 103
7 | CC1=NN=C(c2ccc(N)cc2)c2cc3c(cc2C1)OCO3.Cl [Compound 568, GYKI 52466 hydrochloride] | 90
8 | CC1Cc2cc3c(cc2C(c2ccc(N)cc2)=NN1)OCO3 (centres unmarked) [Compound 569, GYKI 52895] | 71
9 | COC(=O)N1CCN(C(=O)Cc2ccc(Cl)c(Cl)c2)C(CN2CCCC2)C1.O=C(O)/C=C/C(=O)O (centres unmarked) [Compound 570, GR-89696 fumarate] | 79
10 | NCC1(CC(=O)O)CCCCC1 [Compound 571, Gabapentin] | 112
11 | C[N+](C)(C)CCCCCC[N+](C)(C)C [Compound 575, Hexamethonium bromide] | 91
12 | COc1cc(CC(=O)O)ccc1O [Compound 576, 4-Hydroxy-3-methoxyphenylacetic acid] | 82
13 | NCCS(=O)O [Compound 578, Hypotaurine] | 89
14 | NNc1nncc2ccccc12 [Compound 580, Hydralazine hydrochloride] | 100
15 | Cl.OCc1c[nH]cn1 [Compound 581, 4-Imidazolemethanol hydrochloride] | 114
16 | C[N+](C)(C)CCCCCC[N+](C)(C)C.[Cl-].[Cl-] [Compound 582, Hexamethonium dichloride] | 94
17 | COc1ccc(CCN)cc1O.Cl [Compound 586, 4-Methoxy-3-hydroxyphenethylamine hydrochloride] | 130
18 | Nc1c2c(nc3ccccc13)CCCC2O.O=C(O)/C=C\C(=O)O (centres unmarked) [Compound 587, Hydroxytacrine maleate] | 86

Row | SMILES | Compound effect (percent receptor signaling in presence of test compound, relative lux units relative to the SCH23390 control)
19 | C[C@]12CCC(=O)C=C1CC[C@@H]1[C@@H]2[C@@H](O)C[C@@]2(C)[C@H]1CC[C@]2(O)C(=O)CO [Compound 588, Hydrocortisone] | 78
20 | [Cl-].[Li+] [Compound 589, Lithium Chloride] | 86
21 | COC(=O)[C@H](NC(=O)c1cc(-c2ccccc2)nc2ccccc12)c1ccccc1 [Compound 591, SB 218795] | 98
22 | O=c1cc(O)cc(/C=C/c2ccc(O)c(O)c2)o1 [Compound 592, Hispidin] | 81
23 | CCCc1c(-c2ccc(O)cc2)nn(-c2ccc(O)cc2)c1-c1ccc(O)cc1 [Compound 594, 1,3,5-tris(4-hydroxyphenyl)-4-propyl-1H-pyrazole] | 73
24 | Oc1ccc(Cn2ccnc2S)cc1 [Compound 595, 1-(4-Hydroxybenzyl)imidazole-2-thiol] | 63
25 | Cc1nccc2c1[nH]c1ccccc12 [Compound 597, Harmane] | 60
26 | Cl.N[C@@H](Cc1cnc[nH]1)C(=O)O [Compound 601, L-Histidine hydrochloride] | 91
27 | CN1[C@@H]2CC[C@H]1C[C@@H](OC(=O)[C@H](CO)c1ccccc1)C2 [Compound 609, L-Hyoscyamine] | 75
28 | Oc1ccc(O)cc1 [Compound 610, Hydroquinone] | 89
29 | S=C=Nc1ccc2oc(C3=NCCN3)cc2c1 [Compound 611, BU99006] | 104
30 | Cl.Cl.NNCc1cccc(O)c1 [Compound 612, 3-Hydroxybenzylhydrazine dihydrochloride] | 104
31 | CCCc1c(OCCCOc2ccc(OCC(=O)O)cc2)ccc(C(C)=O)c1O [Compound 614, L-165,041] | 116
32 | N[C@@H](Cc1c[nH]c2ccc(O)cc12)C(=O)O [Compound 615, 5-Hydroxy-L-tryptophan] | 126
33 | NNC(=O)c1ccc(O)cc1 [Compound 617, 4-Hydroxybenzhydrazide] | 78
34 | C[N+]1(C)CCOC(O)(c2ccc(-c3ccc(C4(O)C[N+](C)(C)CCO4)cc3)cc2)C1 (centres unmarked) [Compound 618, Hemicholinium-3] | 106
35 | Br.CCCN(CCC)[C@@H]1CCc2cccc(O)c2C1 [Compound 624, R-(+)-8-Hydroxy-DPAT hydrobromide] | 89

same assay, conditions: 10 µM compound, 300 nM dopamine, 2 hr; hit = compound effect <20

Row | SMILES | Compound effect (percent receptor signaling in presence of test compound, relative lux units relative to the SCH23390 control)
36 | N[C@H](CCC(=O)NCS(=O)(=O)O)C(=O)O [Compound 566, gamma-D-Glutamylaminomethylsulfonic acid] | 109%
37 | COc1cc2c(CCNC(C)=O)c[nH]c2cc1O [Compound 574, 6-Hydroxymelatonin] | 101%
38 | C[C@]12CCC(=O)C=C1CC[C@@H]1[C@@H]2[C@@H](O)C[C@@]2(C)[C@H]1CC[C@]2(O)C(=O)COC(=O)CCC(=O)[O-].[Na+] [Compound 583, Hydrocortisone 21-hemisuccinate sodium] | 136%
39 | CC(=O)O.NC(=NCCC[C@H](N)C(=O)O)NO [Compound 598, NG-Hydroxy-L-arginine acetate] | 94%
40 | CC1=C(/C=C/C(C)=C/C=C/C(C)=C/C(=O)Nc2ccc(O)cc2)C(C)(C)CCC1 [Compound 599, Retinoic acid p-hydroxyanilide] | 88%
41 | CCCCC#Cc1nc(N)c2ncn([C@@H]3O[C@H](C(=O)NCC)[C@@H](O)[C@H]3O)c2n1 [Compound 600, HE-NECA] | 99%
42 | NC(=O)NO [Compound 604, Hydroxyurea] | 122%
43 | COc1cc(C(O)CO)ccc1OS(=O)(=O)[O-].[K+] (centres unmarked) [Compound 607, MHPG sulfate potassium] | 131%
44 | O=C(O)Cc1c[nH]c2ccc(O)cc12 [Compound 608, 5-Hydroxyindolacetic acid] | 85%
45 | Cl.NO [Compound 616, Hydroxylamine hydrochloride] | 118%
46 | Cl.NC(N)=NCCNS(=O)(=O)c1cccc2cnccc12 [Compound 619, HA-1004 hydrochloride] | 89%
47 | CC1CNCCN1S(=O)(=O)c1cccc2cnccc12.Cl.Cl (centres unmarked) [Compound 620, H-7 dihydrochloride] | 38%
48 | Cl.O[Si](CCCN1CCCCC1)(c1ccc(F)cc1)C1CCCCC1 (centres unmarked) [Compound 621, Hexahydro-sila-difenidol hydrochloride, p-fluoro analog] | 73%
49 | CCCCCC(O)CCCC(=O)O.[Na] (centres unmarked) [Compound 623, 5-hydroxydecanoic acid sodium] | 126%
50 | Br.CCCN(CCC)[C@@H]1CCc2ccc(O)cc2C1 [Compound 625, R-(+)-7-Hydroxy-DPAT hydrobromide] | 85%
